Data: US20230130102A1, “Na/K-ATPase LIGANDS AND USE THEREOF FOR TREATMENT OF CANCER” (Marshall University Research Corporation, priority 2019, published 2023)
“Also recorded” adds a separate entry of the source.

Legend:
KD cells from C4-2 = assay: Western blot of EMT phenotype in α1 KD cells derived from C4-2; type: cell-based, human; conditions: KD cells from C4-2, 1 μM
Method: Cell lines. DU145, PC3 and C4-2 cell lines were purchased from and maintained according to ATCC recommendations. Parental DU145 and derived cell lines were cultured in high glucose […] supplemented with 10% Fetal Bovine Serum and 1% Penicillin/Streptomycin in 37° c. humidified incubator with 5% C02. LLC-PK1, PY17, Y260A, A425P and YFP-α1TCN cells were cultured in the same media and under similar conditions. PC3 and C4-2 cell lines were cultured in RPMI medium with similar conditions as described above. α1 knockdown KD cells were generated from DU145 and C4-2 using a α1 NKA-specific siRNA, as previously described. Knockdown was verified by both qPCR and Western blot analyses. Rat α1 NKA rescued cell lines were generated by transfecting KD cells with a pRC/CMV-α1 AACm1 vector followed by selection with ouabain (2 μM), as previously described. Cells were passaged for three generations without ouabain before conducting experiments.
Western blot, Immunoprecipitation and Immunostaining. Cells were grown to 100% confluency and Western blot were performed as described before. Images were quantified with ImageJ software from NIH. […]

PY17 cells = assay: basal ERK phosphorylation in PY17 cells; type: cell-based, pig
Method: Western blot, Immunoprecipitation and Immunostaining. Cells were grown to 100% confluency and Western blot were performed as described before. Images were quantified with ImageJ software from NIH. Immunoprecipitation studies were performed as described before. α1 NKA immunostaining was performed by growing cells on sterilized coverslips in 6 well tissue culture plates and permeabilization/fixation with ice-cold methanol followed by blocking with 5% horse serum and 0.1% Triton X-100 in 1× Phosphate buffered saline (PBS) for 30 minutes. Coverslips were then stained with an anti-α1 NKA antibody (Millipore, Cat #05-369) at 1:100 dilution in 1% BSA (Bovine Serum Albumin) containing 1×PBS solution for overnight. Next day after three washes, coverslips were stained with Alexa Fluor 488 conjugated anti-mouse secondary antibody (Thermo-Fisher) for 1 hour, washed extensively and then imaged using a fluorescent microscope with GFP filter or confocal microscope (LEICA-DMIRE2). E-cadherin and occludin immunostaining was performed in a similar manner. Phospho-Src, phospho ERK1/2 immunostaining were performed as described before and images were taken with a LEICA DMIRE2 confocal microscope. […]

P450 enzymes = assay: metabolism by P450 enzymes; type: in vitro ADME
[1] = pharmacokinetic (PK) and toxicity study in a mouse model; type: in vivo
subclone 2 cells = assay: Boyden chamber migration assay; type: cell-based, human
Method: Boyden chamber assay. Different sub-clones were grown up to 100% confluency and then gently trypsinized with 0.05% trypsin-EDTA and 100,000 cells were plated in upper chamber of a […] containing transwell filter with 0.5% FBS containing media. Full serum (10% FBS) containing media was added to the lower chamber as chemoattractant. After 16 hours, a colorimetric assay was used to determine the migration of cells to the lower side of the filter, with absorbance read at 590 nm. Briefly, lower sides of the transwell were washed with 1×PBS and then fixed with ice cold methanol for 10 minutes. After gentle washes with 1×PBS, lower side of the filter were stained with Crystal violet solution (0.5% Crystal Violet in 20% Ethanol), washed and the stain was extracted with methanol. Result was normalized against migration of sub-clone 5 cells. For cell migration in presence of pharmacological compounds, cells at 100% confluency were pretreated for 24 hours with or without MB5, PP2 (Sigma-Aldrich, Catalogue No P0042) or FAK inhibitor I (Millipore, Catalogue No. 324877) and then assay was performed as described above.

[2] = target: T1, α1 NKA/Src receptor complex (Sus scrofa, UniProt P05024); assay: ouabain-induced Src/ERK activation in LLC-PK1 cells (immunostaining, Western blot); type: cell-based, pig
T1 construct: endogenous in cells; host or cells: LLC-PK1
Method: Western blot, Immunoprecipitation and Immunostaining. Cells were grown to 100% confluency and Western blot were performed as described before. Images were quantified with ImageJ software from NIH. Immunoprecipitation studies were performed as described before. α1 NKA immunostaining was performed by growing cells on sterilized coverslips in 6 well tissue culture plates and permeabilization/fixation with ice-cold methanol followed by blocking with 5% horse serum and 0.1% Triton X-100 in 1× Phosphate buffered saline (PBS) for 30 minutes. Coverslips were then stained with an anti-α1 NKA antibody (Millipore, Cat #05-369) at 1:100 dilution in 1% BSA (Bovine Serum Albumin) containing 1×PBS solution for overnight. Next day after three washes, coverslips were stained with Alexa Fluor 488 conjugated anti-mouse secondary antibody (Thermo-Fisher) for 1 hour, washed extensively and then imaged using a fluorescent microscope with GFP filter or confocal microscope (LEICA-DMIRE2). E-cadherin and occludin immunostaining was performed in a similar manner. Phospho-Src, phospho ERK1/2 immunostaining were performed as described before and images were taken with a LEICA DMIRE2 confocal microscope.
Characterization of MB5 activity on the NKA receptor function known as the NKA/Src binary receptor mechanism was conducted in a pig kidney epithelial cells (LLC-PK1)-based platform using immunostaining and Western blot analyses. […] The change of NKA conformation that occurs upon binding of agonists such as ouabain, results in the release and activation of the Src kinase domain from the “Naktide” site of NKA CD3, while the other interaction (constitutive) persists between NKA CD2 and the SH2 domain of Src. […] In LLC-PK1-derived cells with low NKA receptor constitutive activity due to substantial reduction (over 80%) of α1 NKA expression by siRNA (PY17 cells), increased basal Src and ERK activity is observed due to the abnormally high amount of Src kinase that remains in an active conformation. […]

α1 NKA = target: T2, α1 NKA (Homo sapiens, UniProt P05023); assay: α1 NKA endocytosis (biotinylation assay) in subclone 4; type: cell-based; conditions: xenograft derived clone 4
T2 construct: endogenous in cells; host or cells: subclone 4 (from DU145 α1 NKA knockdown xenograft)
Method: α1 NKA endocytosis assay. Endocytosis assay was performed as described before.

In the case of O=c1c2cccc(O)c2oc2c(O)c(O)ccc12 [MB5], the “expression of SNAIL, SLUG and Myc” value (KD cells from C4-2) is reported as “inhibiting the expression of SNAIL, SLUG and Myc”, the “occludin and E-cadherin expression” value (KD cells from C4-2) is reported as “upregulate occludin and E-cadherin expression” and the “basal ERK phosphorylation” value (PY17 cells) is reported as “inhibited ERK phosphorylation in a dose-dependent manner”. The “metabolism by P450 enzymes” value (P450 enzymes) was “not metabolized significantly”, the “systemic exposure level versus dose” value ([1]; 50-200 mg/kg after oral administration) was “proportional to dose level” and the toxic effects ([1]; after more than 1 month of administration) was “No detectable toxic effects”. For the same molecule, the “removal by secondary metabolism” value ([1]; most likely by UGT enzymes) was “quickly removed by secondary metabolism”, the toxicity ([1]; mouse, in vivo) was “quite non-toxic” and the “inhibition of migration of cancer cells” value (subclone 2 cells; Boyden chamber assay, clone 2) was “about 50%”. For the same molecule, the “cell migration compared with PP2 and FAK inhibitor” value (subclone 2 cells; clone 2) was “as effectively as other kinase inhibitors”, the “reduction of cell migration” value (subclone 2 cells; pretreatment with 100 nM for 24 hours, subclone 2) was 50% and the “ERK activation / NKA receptor function by the compound alone” value ([2]; baseline) was “did not activate NKA receptor function under baseline condition; also recorded: did not activate ERK”. For the same molecule, the “inhibition of ouabain-induced ERK (and Src) activation” value ([2]; pretreatment before ouabain) was “abolished ouabain-induced ERK activation; also recorded: better efficacy to inhibit ouabain-induced ERK activation than MB7; also recorded: dose-dependently inhibited Src and ERK activation; also recorded: significantly decreased ouabain-induced ERK signal” and the “α1 NKA endocytosis” value (α1 NKA) was “abolished α1 NKA endocytosis; also recorded: significantly reduced α1 NKA endocytosis”.
